Legend:
Type in all cases: in vivo
[1] = system: blackgrass (Alopecurus myosuroides); assay: Test B pre-/postemergence; design: key: 0 is no effect; 10 is complete control
Summary of the method: (§1)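 Response scores run from 0, meaning no effect, to 10, meaning complete control, assigned by eye relative to controls twelve to sixteen days after spraying. Treatment was both preemergence on planted seed and postemergence on plants at the 1- to 4-leaf stage.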

[2] = system: broadleaf signalgrass (Brachiaria decumbens); assay: Test B pre-/postemergence; design: key: 0 is no effect; 10 is complete control
Summary of the method: as §1

[3] = system: cocklebur (Xanthium strumarium); assay: Test B pre-/postemergence; design: key: 0 is no effect; 10 is complete control
Summary of the method: as §1

[4] = system: momingglory (Ipomoea hederacea); assay: Test B pre-/postemergence; design: key: 0 is no effect; 10 is complete control
Summary of the method: as §1

[5] = system: pigweed (Amaranthus retroflexus); assay: Test B pre-/postemergence; design: key: 0 is no effect; 10 is complete control
Summary of the method: as §1

[6] = system: common purslane (Portulaca oleracea); assay: Test E pre-/postemergence/post directed; design: key: 0 is no effect; 100 is complete control; conditions: PREEMERGENCE
Text: (§2) Seeds, tubers, or plant parts of alexandergrass (Brachiaria plantaginea), annual bluegrass (Poa annua), arrowleaf sida (Sida rhombifolia), barnyardgrass (Echinochloa crus-galli), bermudagrass (Cynodon dactylon), citrus (Citrus sinensis), common chickweed (Stellaria media), common purslane (Portulaca oleracea), common ragweed (Ambrosia elatior), common groundsel (Senecio vulgaris), dallisgrass (Paspalum dilatatum), goosegrass (Eleusine indica), green foxtail (Setaria viridis), guineagrass (Panicum maximum), itchgrass (Rottboellia exaltata), johnson grass (Sorghum halepense), kochia (Kochia scoparia), large crabgrass (Digitaria sanguinalis), leafy spurge (Euphorbia esula), pitted morningglory (Ipomoea lacunosa), purple nutsedge (Cyperus rotundus), quackgrass (Agropyron repens), Russian thistle (Salsola kali), sandbur (Cenchrus echinatus), sourgrass (Trichachne insularis), Spanishneedles (Bidens bipinnata), sugarcane (Saccharum officinarum), surinam grass (Brachiaria decumbens) and tall mallow (Malva sylvestris) were planted into greenhouse pots of flats containing greenhouse planting medium. Plant species were grown grown in separate pots or individual compartments. Preemergence applications were made within one day of planting the seed or plant part. Postemergence applications were applied when the plants were in the two to four leaf stage (three to twenty cm).
(§3) Test chemicals were formulated in a non-phytotoxic solvent mixture which included a surfactant and applied preemergence to the soil surface, postemergence to the plants or as a post directed spray to plants and soil at the base of the target species. Untreated control plants and treated plants were placed in the greenhouse and visually evaluated for injury 13 to 21 days after herbicide application. Plant response ratings, summarized in Table E, are based on a 0 to 100 scale where 0 is no injury and 100 is complete control. A dash (−) response means no test result.

[7] = system: dallisgrass (Paspalum dilatatum); assay: Test E pre-/postemergence/post directed; design: key: 0 is no effect; 100 is complete control; conditions: PREEMERGENCE
Text: as §2, §3

[8] = system: guineagrass (Panicum maximum); assay: Test E pre-/postemergence/post directed; design: key: 0 is no effect; 100 is complete control; conditions: PREEMERGENCE
Text: as §2, §3

[9] = system: tall mallow (Malva sylvestris); assay: Test E pre-/postemergence/post directed; design: key: 0 is no effect; 100 is complete control; conditions: PREEMERGENCE
Text: as §2, §3

[10] = system: arrowleaf sida (Sida rhombifolia); assay: Test C; design: key: 0 was no effect; 100 was complete control; conditions: PREEMERGENCE
[11] = system: johnsongrass (Sorghum halepense); assay: Test C; design: key: 0 was no effect; 100 was complete control; conditions: PREEMERGENCE
[12] = system: redroot pigweed (Amaranthus retroflexus); assay: Test C; design: key: 0 was no effect; 100 was complete control; conditions: PREEMERGENCE
[13] = Preemergence, Rate 62 g/ha, scale of 0 to 10

`Cc1cnc(-n2cnc(C(F)(F)F)n2)nc1C(=O)c1cccc(C(F)(F)F)c1` [Compound 67] was tested, and the “Plant response rating, Blackgrass” value [1, 13] was 3, the “Blackgrass plant response rating” value ([1]; Rate 62 g/ha, Postemergence) was 5 and the “Blackgrass plant response rating” value ([1]; Rate 125 g/ha, Postemergence) was 8. For the same compound, the “Plant response rating, Blackgrass” value ([1]; Rate 125 g/ha, Preemergence) was 4, the “Plant response rating, Blackgrass” value ([1]; Rate 250 g/ha, Postemergence) was 9 and the “Plant response rating, Blackgrass” value ([1]; Rate 250 g/ha, Preemergence) was 8. For the same compound, the “Plant response rating, Blackgrass” value ([1]; Rate 500 g/ha, Postemergence) was 10, the “Plant response rating, Blackgrass” value ([1]; Rate 500 g/ha, Preemergence) was 9 and the “B. signalgrass plant response rating” value ([2]; Rate 62 g/ha, Postemergence) was 5. The “B. signalgrass plant response rating” value ([2]; Rate 62 g/ha, Preemergence) was 8, the “B. signalgrass plant response rating” value ([2]; Rate 125 g/ha, Postemergence) was 7 and the “Plant response rating, B. signalgrass” value ([2]; Rate 125 g/ha, Preemergence) was 9. For the same compound, the “Plant response rating, B. signalgrass” value ([2]; Rate 250 g/ha, Postemergence) was 7, the “Plant response rating, B. signalgrass” value ([2]; Rate 250 g/ha, Preemergence) was 10 and the “Plant response rating, B. signalgrass” value ([2]; Rate 500 g/ha, Postemergence) was 9. The “Plant response rating, B. signalgrass” value ([2]; Rate 500 g/ha, Preemergence) was 10, the “Cocklebur plant response rating” value ([3]; Rate 62 g/ha, Postemergence) was 7 and the “Cocklebur plant response rating” value ([3]; Rate 125 g/ha, Postemergence) was 7. For the same compound, the “Plant response rating, Cocklebur” value ([3]; Rate 250 g/ha, Postemergence) was 8, the “Plant response rating, Cocklebur” value ([3]; Rate 250 g/ha, Preemergence) was 2 and the “Plant response rating, Cocklebur” value ([3]; Rate 500 g/ha, Postemergence) was 9. The “Plant response rating, Cocklebur” value ([3]; Rate 500 g/ha, Preemergence) was 5, the “Plant response rating, Morningglory” value [4, 13] was 8 and the “Morningglory plant response rating” value ([4]; Rate 62 g/ha, Postemergence) was 7. For the same compound, the “Morningglory plant response rating” value ([4]; Rate 125 g/ha, Postemergence) was 7, the “Plant response rating, Morningglory” value ([4]; Rate 125 g/ha, Preemergence) was 10 and the “Plant response rating, Morningglory” value ([4]; Rate 250 g/ha, Postemergence) was 10. The “Plant response rating, Morningglory” value ([4]; Rate 250 g/ha, Preemergence) was 10, the “Plant response rating, Morningglory” value ([4]; Rate 500 g/ha, Postemergence) was 10 and the “Plant response rating, Morningglory” value ([4]; Rate 500 g/ha, Preemergence) was 10. For the same compound, the “Plant response rating, Redroot pigweed” value [5, 13] was 9, the “Redroot pigweed plant response rating” value ([5]; Rate 62 g/ha, Postemergence) was 9 and the “Redroot pigweed plant response rating” value ([5]; Rate 125 g/ha, Postemergence) was 10. For the same compound, the “Plant response rating, Redroot pigweed” value ([5]; Rate 125 g/ha, Preemergence) was 10, the “Plant response rating, Redroot pigweed” value ([5]; Rate 250 g/ha, Postemergence) was 10 and the “Plant response rating, Redroot pigweed” value ([5]; Rate 250 g/ha, Preemergence) was 10. For the same compound, the “Plant response rating, Redroot pigweed” value ([5]; Rate 500 g/ha, Postemergence) was 10, the “Plant response rating, Redroot pigweed” value ([5]; Rate 500 g/ha, Preemergence) was 10 and the “Plant response rating, Com. purslane” value ([6]; Rate 32 g/ha) was 80. For the same compound, the “Plant response rating, Com. purslane” value ([6]; Rate 64 g/ha) was 100, the “Plant response rating, Com. purslane” value ([6]; Rate 125 g/ha) was 100 and the “Plant response rating, Com. purslane” value ([6]; Rate 250 g/ha) was 100. The “Plant response rating, Dallisgrass” value ([7]; Rate 32 g/ha) was 40, the “Plant response rating, Dallisgrass” value ([7]; Rate 64 g/ha) was 70 and the “Plant response rating, Dallisgrass” value ([7]; Rate 125 g/ha) was 80. For the same compound, the “Plant response rating, Dallisgrass” value ([7]; Rate 250 g/ha) was 100, the “Plant response rating, Guineagrass” value ([8]; Rate 32 g/ha) was 80 and the “Plant response rating, Guineagrass” value ([8]; Rate 64 g/ha) was 100. The “Plant response rating, Guineagrass” value ([8]; Rate 125 g/ha) was 100, the “Plant response rating, Guineagrass” value ([8]; Rate 250 g/ha) was 100 and the “Plant response rating, Tall Mallow” value ([9]; Rate 32 g/ha) was 80. The “Plant response rating, Tall Mallow” value ([9]; Rate 64 g/ha) was 90, the “Plant response rating, Tall Mallow” value ([9]; Rate 125 g/ha) was 90 and the “Plant response rating, Tall Mallow” value ([9]; Rate 250 g/ha) was 98.

In the case of `Cc1cnc(-n2ccc(C(F)(F)F)n2)nc1C(=O)c1cccc(OC(F)(F)F)c1` [Compound 66], the “Plant response rating, Blackgrass” value [1, 13] is reported as 3, the “Blackgrass plant response rating” value ([1]; Rate 62 g/ha, Postemergence) is reported as 2 and the “Blackgrass plant response rating” value ([1]; Rate 125 g/ha, Postemergence) is reported as 3. For the same compound, the “Plant response rating, Blackgrass” value ([1]; Rate 125 g/ha, Preemergence) was 3, the “Plant response rating, Blackgrass” value ([1]; Rate 250 g/ha, Postemergence) was 5 and the “Plant response rating, Blackgrass” value ([1]; Rate 250 g/ha, Preemergence) was 8. The “Plant response rating, Blackgrass” value ([1]; Rate 500 g/ha, Postemergence) was 6, the “Plant response rating, Blackgrass” value ([1]; Rate 500 g/ha, Preemergence) was 10 and the “B. signalgrass plant response rating” value ([2]; Rate 62 g/ha, Postemergence) was 2. For the same compound, the “B. signalgrass plant response rating” value ([2]; Rate 62 g/ha, Preemergence) was 9, the “B. signalgrass plant response rating” value ([2]; Rate 125 g/ha, Postemergence) was 3 and the “Plant response rating, B. signalgrass” value ([2]; Rate 125 g/ha, Preemergence) was 9. For the same compound, the “Plant response rating, B. signalgrass” value ([2]; Rate 250 g/ha, Postemergence) was 4, the “Plant response rating, B. signalgrass” value ([2]; Rate 250 g/ha, Preemergence) was 9 and the “Plant response rating, B. signalgrass” value ([2]; Rate 500 g/ha, Postemergence) was 5. For the same compound, the “Plant response rating, B. signalgrass” value ([2]; Rate 500 g/ha, Preemergence) was 10, the “Plant response rating, Cocklebur” value [3, 13] was 0 and the “Cocklebur plant response rating” value ([3]; Rate 62 g/ha, Postemergence) was 3. The “Cocklebur plant response rating” value ([3]; Rate 125 g/ha, Postemergence) was 4, the “Plant response rating, Cocklebur” value ([3]; Rate 125 g/ha, Preemergence) was 0 and the “Plant response rating, Cocklebur” value ([3]; Rate 250 g/ha, Postemergence) was 4. The “Plant response rating, Cocklebur” value ([3]; Rate 250 g/ha, Preemergence) was 0, the “Plant response rating, Cocklebur” value ([3]; Rate 500 g/ha, Postemergence) was 5 and the “Plant response rating, Cocklebur” value ([3]; Rate 500 g/ha, Preemergence) was 3. The “Plant response rating, Morningglory” value [4, 13] was 2, the “Morningglory plant response rating” value ([4]; Rate 62 g/ha, Postemergence) was 2 and the “Morningglory plant response rating” value ([4]; Rate 125 g/ha, Postemergence) was 4. The “Plant response rating, Morningglory” value ([4]; Rate 125 g/ha, Preemergence) was 3, the “Plant response rating, Morningglory” value ([4]; Rate 250 g/ha, Postemergence) was 9 and the “Plant response rating, Morningglory” value ([4]; Rate 250 g/ha, Preemergence) was 3. The “Plant response rating, Morningglory” value ([4]; Rate 500 g/ha, Postemergence) was 10, the “Plant response rating, Morningglory” value ([4]; Rate 500 g/ha, Preemergence) was 9 and the “Plant response rating, Redroot pigweed” value [5, 13] was 7. The “Redroot pigweed plant response rating” value ([5]; Rate 62 g/ha, Postemergence) was 8, the “Redroot pigweed plant response rating” value ([5]; Rate 125 g/ha, Postemergence) was 9 and the “Plant response rating, Redroot pigweed” value ([5]; Rate 125 g/ha, Preemergence) was 9. The “Plant response rating, Redroot pigweed” value ([5]; Rate 250 g/ha, Postemergence) was 10, the “Plant response rating, Redroot pigweed” value ([5]; Rate 250 g/ha, Preemergence) was 9 and the “Plant response rating, Redroot pigweed” value ([5]; Rate 500 g/ha, Postemergence) was 10. For the same compound, the “Plant response rating, Redroot pigweed” value ([5]; Rate 500 g/ha, Preemergence) was 10, the “Plant response rating, Arrowleaf sida” value ([10]; Rate 35 g/ha) was 5 and the “Plant response rating, Arrowleaf sida” value ([10]; Rate 70 g/ha) was 5. For the same compound, the “Plant response rating, Arrowleaf sida” value ([10]; Rate 140 g/ha) was 100, the “Plant response rating, Johnsongrass” value ([11]; Rate 35 g/ha) was 0 and the “Plant response rating, Johnsongrass” value ([11]; Rate 70 g/ha) was 5. For the same compound, the “Plant response rating, Johnsongrass” value ([11]; Rate 140 g/ha) was 10, the “Plant response rating, Redroot pigweed” value ([12]; Rate 35 g/ha) was 100 and the “Plant response rating, Redroot pigweed” value ([12]; Rate 70 g/ha) was 100. For the same compound, the “Plant response rating, Redroot pigweed” value ([12]; Rate 140 g/ha) was 100.

From patent US6525001B1, “Substituted pyrimidine and pyridine herbicides” (Mid-American Commercialization Corporation, priority 1997, dated 2003)
